Data as given in patent US20230416331A1, “PEPTIDE CONJUGATES OF PEPTIDIC TUBULIN INHIBITORS AS THERAPEUTICS” (priority 2021, published 2023).
Where a SMILES comes first, the peptide text is derived from it. [ ]: non-standard residue; d: D form. The star is where a group is joined. Dolaproine = CO[C@@H]([C@@H]1CCCN1)[C@@H](C)C(=O)O; Dil = CC[C@H](C)[C@H](NC)[C@@H](CC(=O)O)OC; X1 = C[C@@H](N*)[C@@H](O)c1ccccc1; NMeV = CN[C@H](C(=O)O)C(C)C

Key:
[1] = Tissue pharmacokinetics of Compound 2 in a mouse model (MMAE in tumor, muscle, bone marrow); assay type: in vivo, athymic nude mice bearing HCT116 tumors; conditions: single IP 0.5 mg/kg MMAE or 3 mg/kg Compound 2; 4, 24, 48 h; LCMS
Experimental: When xenografts reached a minimal volume of 300 mm^3, mice were administered a single intraperitoneal injection of 0.5 mg/kg MMAE or 3 mg/kg Compound 2 prepared in a vehicle of 5% mannitol in citrate. Tumor, quadriceps muscle and bone marrow samples were collected from fed, anesthetized mice at 4, 24 and 48 hours after compound administration. MMAE concentrations in tissues were determined via LCMS.
A 75 μL volume of acetonitrile:formic acid (1000:1, v:v) containing internal standard (MMAE-D8) to the wells of a 96-well protein precipitation plate resting on top of a 0.700 mL 96-well LoBind polypropylene plate. Double blank and carryover sample wells received 75 μL of acetonitrile:formic acid (1000:1, v:v) without internal standard. A 25 μL volume of each matrix sample was added to the plate wells containing internal standard. Fortified samples were vortexed at 700 rpm for 1 minute and centrifuged at 3000 rpm for 2 minutes at 4° C. The protein precipitation plate was discarded. A 50 μL volume of mobile phase A (acetonitrile:water:200 mM ammonium formate (90:5:5, v:v:v)) was added to the 96-well polypropylene collection plate which was covered with a silicone cap mat. Final samples were vortexed at 700 rpm for 2 minutes and analysis was accomplished by injecting a 2 μL sample onto an LC-MS/MS system. […]

[2] = tested on: HCT116 HER2 negative colorectal flank tumors; experiment: Efficacy in a HCT116 colorectal xenograft model (Example E); assay type: in vivo, nude mice; conditions: IP QDx2
Experimental: Mice were administered intraperitoneal (IP) doses of vehicle, 0.25 mg/kg MMAE or 40 mg/kg Compound 1 (equivalent 7 mg/kg unconjugated MMAE).

[3] = tested on: HCT116 cells; experiment: In vitro cell cycle arrest functional assay (propidium iodide, flow cytometry); assay type: cell-based; conditions: Homo sapiens, HCT-116, 24 h incubation, read-out: IC50 of dose responsive accumulation in G2/M
Experimental: Cell Incubation with MMAE and Compound 2 and Staining with Propidium Iodide
HCT116 cells were seeded in 6-well tissue culture plates at 500,000 cells per well in 2 mL of DMEM and incubated overnight in a 37° C., 5% CO2 incubator. 200 μL of dilutions of MMAE and Compound 2 which were made at 10× concentrations in DMEM+4% DMSO were added to appropriate wells of the 6-well plates and plates were incubated for 24 hours. After exposure of HCT116 cells to either MMAE or Compound 2, cells were harvested for propidium iodide staining and flow cytometry. Media was collected from each well and transferred into conical 15 mL centrifuge tubes to collect nonadherent cells. PBS (1 mL) was added to wash wells and was then transferred to the 15 mL tubes. Tryp-LE (1 mL) was added to each well and plates were incubated for 5 minutes in a 37° C., 5% CO2 incubator until the cells lifted off the well surface. A solution of DMEM+10% fetal bovine serum (1 mL) was added to each well. Wells were triturated and cells transferred to tubes. […] Cell counts and viability for each sample was assessed by trypan blue exclusion on a Bio-Rad TC20 cell counter. […]
An aliquot (1 mL) of each cell suspension was transferred into a deep-well polypropylene plate. […] Propidium iodide-stained cells were analyzed using a BD Acuri flow cytometer.

[4] = tested on: HCT116 colorectal cancer flank tumors; experiment: Efficacy of Compound 5 in a HCT116 colorectal xenograft model (Example N); assay type: in vivo, nude mice; conditions: 1, 5 and 10 mg/kg IP QDx4
Experimental: Mice were administered intraperitoneal (IP) doses of vehicle, 1, 5, or 10 mg/kg Compound 5.

CC[C@H](C)[C@@H]([C@@H](CC(=O)N1CCC[C@H]1[C@H](OC)[C@@H](C)C(=O)N[C@H](C)[C@@H](O)c1ccccc1)OC)N(C)C(=O)[C@@H](NC(=O)[C@@H](NC)C(C)C)C(C)C [MMAE, monomethyl auristatin E] (H-[NMeV]V[Dil][Dolaproine]-X1)
distribution of unconjugated MMAE to tumor, muscle and bone marrow [1]: indiscriminate distribution of MMAE across all tissues
animals removed from the study by day ([2]; 0.25 mg/kg MMAE): ≤ 6 days
change in body weight ([2]; 0.25 mg/kg MMAE or 40 mg/kg Compound 1 (7 mg/kg MMAE equivalent)): rapid decline in body weight
IC50 [3]: 2.6 nM

CC[C@H](C)[C@@H]([C@@H](CC(=O)N1CCC[C@H]1[C@H](OC)[C@@H](C)C(=O)N[C@H](C)[C@@H](O)c1ccccc1)OC)N(C)C(=O)[C@@H](NC(=O)[C@H](C(C)C)N(C)C(=O)OCc1ccc(NC(=O)O[C@H]2CCCC[C@@H]2SSC[C@H](NC(=O)[C@H](Cc2c[nH]c3ccccc23)NC(=O)[C@H](CC(C)C)NC(=O)[C@H](CC(C)C)NC(=O)[C@H](CC(=O)O)NC(=O)[C@H](CC(C)C)NC(=O)[C@H](CC(C)C)NC(=O)[C@H](CC(C)C)NC(=O)[C@@H](NC(=O)[C@H](CC(=O)O)NC(=O)[C@@H](NC(=O)[C@@H]2CCCN2C(=O)[C@H](Cc2ccccc2)NC(=O)[C@H](CC(C)C)NC(=O)[C@H](CC(C)C)NC(=O)[C@H](CC(=O)O)NC(=O)[C@H](CC(C)C)NC(=O)[C@H](Cc2ccc(O)cc2)NC(=O)[C@H](C)NC(=O)[C@H](CCCNC(=N)N)NC(=O)[C@H](Cc2c[nH]c3ccccc23)NC(=O)[C@@H]2CCCN2C(=O)[C@H](CC(N)=O)NC(=O)[C@H](CCC(N)=O)NC(=O)[C@H](CC(=O)O)NC(=O)[C@H](CC(=O)O)NC(=O)[C@H](C)N)[C@@H](C)O)[C@@H](C)O)C(=O)NCC(N)=O)cc1)C(C)C [Compound 5]
efficacy (mean tumor volume) [4]: dose responsive efficacy
